The source of these data is ChEMBL document CHEMBL5291721, “A preclinical secondary pharmacology resource illuminates target-adverse drug reaction associations of marketed drugs” (Nat Commun, 2023).

For test [1], the target named is T1, Muscarinic acetylcholine receptor M1 (Homo sapiens, UniProt P11229).
T1 sequence (P11229 whole entry): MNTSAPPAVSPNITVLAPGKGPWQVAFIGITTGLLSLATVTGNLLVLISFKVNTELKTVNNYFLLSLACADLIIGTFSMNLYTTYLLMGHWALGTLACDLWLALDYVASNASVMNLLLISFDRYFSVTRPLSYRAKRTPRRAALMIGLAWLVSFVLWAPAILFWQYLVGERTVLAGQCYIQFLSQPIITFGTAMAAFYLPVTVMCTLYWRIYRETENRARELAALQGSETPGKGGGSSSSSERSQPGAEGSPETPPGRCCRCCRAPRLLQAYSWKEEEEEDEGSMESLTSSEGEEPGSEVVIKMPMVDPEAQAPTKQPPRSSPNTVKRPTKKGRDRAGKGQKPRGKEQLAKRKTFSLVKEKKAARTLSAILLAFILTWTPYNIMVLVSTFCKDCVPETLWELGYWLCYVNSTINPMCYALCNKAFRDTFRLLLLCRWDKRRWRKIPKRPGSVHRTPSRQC
The format is functional.

Test [2] deals with T2, 5-hydroxytryptamine receptor 2B (Homo sapiens, UniProt P41595). The format is functional, cell-based.
T2 sequence (P41595 whole entry): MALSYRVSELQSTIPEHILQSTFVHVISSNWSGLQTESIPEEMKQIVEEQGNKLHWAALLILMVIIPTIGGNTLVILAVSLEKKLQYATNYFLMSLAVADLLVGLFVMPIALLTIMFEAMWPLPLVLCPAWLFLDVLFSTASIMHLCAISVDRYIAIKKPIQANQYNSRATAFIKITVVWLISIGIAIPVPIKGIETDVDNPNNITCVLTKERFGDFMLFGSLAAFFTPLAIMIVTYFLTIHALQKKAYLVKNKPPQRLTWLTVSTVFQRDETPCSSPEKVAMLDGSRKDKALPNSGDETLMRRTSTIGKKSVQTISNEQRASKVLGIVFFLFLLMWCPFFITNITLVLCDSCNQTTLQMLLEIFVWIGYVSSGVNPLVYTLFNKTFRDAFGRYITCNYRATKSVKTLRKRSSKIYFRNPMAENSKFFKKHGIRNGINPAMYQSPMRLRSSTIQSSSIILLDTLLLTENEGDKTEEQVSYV
For test [3], the target named is Cannabinoid receptor 1 (Homo sapiens, UniProt P21554). It counts as functional, cell-based.
Sequence of Cannabinoid receptor 1 (P21554 whole entry): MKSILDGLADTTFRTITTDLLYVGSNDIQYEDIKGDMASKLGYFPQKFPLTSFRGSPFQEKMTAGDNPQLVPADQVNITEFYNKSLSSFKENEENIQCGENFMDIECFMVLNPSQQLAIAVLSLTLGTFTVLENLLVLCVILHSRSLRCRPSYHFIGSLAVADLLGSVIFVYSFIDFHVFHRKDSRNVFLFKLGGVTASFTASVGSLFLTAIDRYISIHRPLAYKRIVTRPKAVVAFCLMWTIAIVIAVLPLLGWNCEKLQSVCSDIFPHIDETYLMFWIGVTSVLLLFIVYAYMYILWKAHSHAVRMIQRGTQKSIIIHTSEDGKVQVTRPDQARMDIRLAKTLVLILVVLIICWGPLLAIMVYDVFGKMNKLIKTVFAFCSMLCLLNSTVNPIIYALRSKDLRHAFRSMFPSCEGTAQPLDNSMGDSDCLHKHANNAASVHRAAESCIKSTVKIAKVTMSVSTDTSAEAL
Test [4] deals with 5-hydroxytryptamine receptor 2A (Homo sapiens, UniProt P28223). It counts as functional, cell-based.
Sequence of 5-hydroxytryptamine receptor 2A (P28223 whole entry): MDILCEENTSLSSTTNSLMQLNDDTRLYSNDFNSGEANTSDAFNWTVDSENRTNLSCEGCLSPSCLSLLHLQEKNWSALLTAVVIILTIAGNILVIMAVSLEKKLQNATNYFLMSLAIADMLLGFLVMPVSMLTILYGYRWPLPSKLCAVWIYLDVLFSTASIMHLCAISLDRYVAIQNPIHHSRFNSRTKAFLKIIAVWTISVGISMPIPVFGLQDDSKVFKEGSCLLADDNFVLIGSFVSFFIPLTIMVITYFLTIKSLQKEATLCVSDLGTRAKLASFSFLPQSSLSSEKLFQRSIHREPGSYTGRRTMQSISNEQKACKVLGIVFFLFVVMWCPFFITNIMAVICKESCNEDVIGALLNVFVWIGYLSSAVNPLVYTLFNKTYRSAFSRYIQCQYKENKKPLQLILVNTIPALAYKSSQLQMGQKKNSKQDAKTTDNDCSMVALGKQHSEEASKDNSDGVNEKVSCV
In test [5] the target is T2, 5-hydroxytryptamine receptor 2B. It counts as functional, cell-based. The source holds these as a separate data set.
In test [6] the target is T3, Alpha-1A adrenergic receptor (Homo sapiens, UniProt P35348).
T3 sequence (P35348 whole entry): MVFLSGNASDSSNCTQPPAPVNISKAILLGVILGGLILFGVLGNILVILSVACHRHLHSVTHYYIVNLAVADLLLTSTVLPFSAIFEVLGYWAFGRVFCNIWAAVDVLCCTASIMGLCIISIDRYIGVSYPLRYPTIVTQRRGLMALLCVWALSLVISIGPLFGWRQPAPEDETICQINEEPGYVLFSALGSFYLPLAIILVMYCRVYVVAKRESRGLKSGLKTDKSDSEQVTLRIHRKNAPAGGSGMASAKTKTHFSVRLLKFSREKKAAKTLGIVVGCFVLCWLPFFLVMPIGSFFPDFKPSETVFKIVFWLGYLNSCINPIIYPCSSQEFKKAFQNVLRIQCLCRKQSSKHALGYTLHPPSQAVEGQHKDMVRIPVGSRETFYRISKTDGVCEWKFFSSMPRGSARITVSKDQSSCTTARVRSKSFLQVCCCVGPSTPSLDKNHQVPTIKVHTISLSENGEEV
The format is functional, cell-based.

Test [7] concerns the target Kappa-type opioid receptor (Homo sapiens, UniProt P41145).
Test [8] has as its target Muscarinic acetylcholine receptor M3 (Homo sapiens, UniProt P20309).
Test [9] addresses Mu-type opioid receptor (Homo sapiens, UniProt P35372). Nature of the test: biochemical. It counts as functional.
Test [10] deals with T4, Gastrin/cholecystokinin type B receptor (Homo sapiens, UniProt P32239).
T4 sequence (P32239 whole entry): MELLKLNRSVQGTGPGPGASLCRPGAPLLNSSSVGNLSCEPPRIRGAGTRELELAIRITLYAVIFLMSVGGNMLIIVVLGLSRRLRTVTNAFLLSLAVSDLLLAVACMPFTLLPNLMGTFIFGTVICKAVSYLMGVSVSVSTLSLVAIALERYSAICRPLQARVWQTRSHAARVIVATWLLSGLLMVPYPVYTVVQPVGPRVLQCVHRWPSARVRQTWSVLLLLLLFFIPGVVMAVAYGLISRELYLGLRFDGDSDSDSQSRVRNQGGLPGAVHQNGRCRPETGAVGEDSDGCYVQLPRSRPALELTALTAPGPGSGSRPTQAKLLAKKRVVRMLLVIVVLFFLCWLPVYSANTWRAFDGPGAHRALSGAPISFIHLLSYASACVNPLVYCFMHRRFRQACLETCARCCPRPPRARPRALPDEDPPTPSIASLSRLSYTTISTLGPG

For test [11], the target named is T5, Endothelin-1 receptor (Homo sapiens, UniProt P25101).
T5 sequence (P25101 whole entry): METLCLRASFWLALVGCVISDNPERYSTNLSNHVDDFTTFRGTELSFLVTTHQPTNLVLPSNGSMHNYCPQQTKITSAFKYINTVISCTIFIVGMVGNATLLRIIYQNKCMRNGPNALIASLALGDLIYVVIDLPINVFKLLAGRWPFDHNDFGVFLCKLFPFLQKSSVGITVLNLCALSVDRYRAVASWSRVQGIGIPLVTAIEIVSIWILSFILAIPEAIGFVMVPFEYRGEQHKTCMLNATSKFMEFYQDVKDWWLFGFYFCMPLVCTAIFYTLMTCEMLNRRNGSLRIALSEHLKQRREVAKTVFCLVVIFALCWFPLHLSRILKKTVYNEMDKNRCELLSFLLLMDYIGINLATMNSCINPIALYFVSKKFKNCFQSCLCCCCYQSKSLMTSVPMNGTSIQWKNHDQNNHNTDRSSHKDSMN

In test [12] the target is Beta-2 adrenergic receptor (Homo sapiens, UniProt P07550). The format is functional, cell-based.
Sequence of Beta-2 adrenergic receptor (P07550 whole entry): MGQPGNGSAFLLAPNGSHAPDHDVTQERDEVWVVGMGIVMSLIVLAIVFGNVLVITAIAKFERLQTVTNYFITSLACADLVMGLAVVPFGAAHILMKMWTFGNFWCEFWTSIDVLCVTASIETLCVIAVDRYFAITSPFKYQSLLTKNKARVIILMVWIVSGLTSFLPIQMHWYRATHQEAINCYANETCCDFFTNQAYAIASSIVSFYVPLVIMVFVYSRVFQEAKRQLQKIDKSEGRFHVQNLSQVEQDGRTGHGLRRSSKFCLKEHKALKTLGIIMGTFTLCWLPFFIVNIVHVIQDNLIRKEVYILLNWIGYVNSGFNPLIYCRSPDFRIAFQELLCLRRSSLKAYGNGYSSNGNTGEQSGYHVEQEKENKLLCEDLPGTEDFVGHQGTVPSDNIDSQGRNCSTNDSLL
In test [13] the target is Acetylcholinesterase (Homo sapiens, UniProt P22303). The format is functional.
For test [14], the target named is T6, Adenosine receptor A3 (Homo sapiens, UniProt P0DMS8).
T6 sequence (P0DMS8 whole entry): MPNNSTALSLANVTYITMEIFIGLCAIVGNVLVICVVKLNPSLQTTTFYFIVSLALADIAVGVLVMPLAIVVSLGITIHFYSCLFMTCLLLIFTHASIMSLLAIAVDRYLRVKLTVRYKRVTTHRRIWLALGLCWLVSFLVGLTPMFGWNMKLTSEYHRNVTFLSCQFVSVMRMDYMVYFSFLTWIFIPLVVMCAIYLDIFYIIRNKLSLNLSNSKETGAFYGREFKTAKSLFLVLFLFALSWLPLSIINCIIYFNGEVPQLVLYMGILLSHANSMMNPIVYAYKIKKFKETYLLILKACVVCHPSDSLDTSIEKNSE

Test [15] deals with Histamine H3 receptor (Homo sapiens, UniProt Q9Y5N1).
Sequence of Histamine H3 receptor (Q9Y5N1 whole entry): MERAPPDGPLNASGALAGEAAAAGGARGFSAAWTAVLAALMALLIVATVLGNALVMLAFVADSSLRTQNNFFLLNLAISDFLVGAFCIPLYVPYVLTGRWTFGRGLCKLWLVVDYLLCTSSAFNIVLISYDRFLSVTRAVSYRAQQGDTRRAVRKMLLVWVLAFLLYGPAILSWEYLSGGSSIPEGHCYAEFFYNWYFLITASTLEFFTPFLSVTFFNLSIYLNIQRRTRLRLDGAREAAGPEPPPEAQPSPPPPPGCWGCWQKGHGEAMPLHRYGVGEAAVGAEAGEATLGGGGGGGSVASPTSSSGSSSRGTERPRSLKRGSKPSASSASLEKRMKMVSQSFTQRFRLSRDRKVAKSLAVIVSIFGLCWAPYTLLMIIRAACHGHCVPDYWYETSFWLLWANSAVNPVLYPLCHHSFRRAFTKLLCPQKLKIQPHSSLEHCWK
Test [16] addresses Vascular endothelial growth factor receptor 2 (Homo sapiens, UniProt P35968). It counts as functional.
For test [17], the target named is Prothrombin (Homo sapiens, UniProt P00734). The format is functional.

A value given as a limit tells only on which side of the number the result lay.

As usually defined, the AC50 is the midpoint of the concentration-response curve, whichever way the signal moves. A high value points to weaker potency.
Further: assay procedure not described here.

Sequence of Kappa-type opioid receptor (P41145 whole entry): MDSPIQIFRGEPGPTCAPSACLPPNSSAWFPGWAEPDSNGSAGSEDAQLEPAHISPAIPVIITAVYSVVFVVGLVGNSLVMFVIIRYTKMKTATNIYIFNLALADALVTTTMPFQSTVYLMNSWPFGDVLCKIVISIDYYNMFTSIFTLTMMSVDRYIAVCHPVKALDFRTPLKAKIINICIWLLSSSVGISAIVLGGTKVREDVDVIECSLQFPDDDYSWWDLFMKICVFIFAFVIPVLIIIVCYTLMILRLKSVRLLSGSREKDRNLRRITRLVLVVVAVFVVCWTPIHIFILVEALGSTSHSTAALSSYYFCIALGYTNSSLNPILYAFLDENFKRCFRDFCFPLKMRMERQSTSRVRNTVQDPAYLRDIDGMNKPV
Sequence of Muscarinic acetylcholine receptor M3 (P20309 whole entry): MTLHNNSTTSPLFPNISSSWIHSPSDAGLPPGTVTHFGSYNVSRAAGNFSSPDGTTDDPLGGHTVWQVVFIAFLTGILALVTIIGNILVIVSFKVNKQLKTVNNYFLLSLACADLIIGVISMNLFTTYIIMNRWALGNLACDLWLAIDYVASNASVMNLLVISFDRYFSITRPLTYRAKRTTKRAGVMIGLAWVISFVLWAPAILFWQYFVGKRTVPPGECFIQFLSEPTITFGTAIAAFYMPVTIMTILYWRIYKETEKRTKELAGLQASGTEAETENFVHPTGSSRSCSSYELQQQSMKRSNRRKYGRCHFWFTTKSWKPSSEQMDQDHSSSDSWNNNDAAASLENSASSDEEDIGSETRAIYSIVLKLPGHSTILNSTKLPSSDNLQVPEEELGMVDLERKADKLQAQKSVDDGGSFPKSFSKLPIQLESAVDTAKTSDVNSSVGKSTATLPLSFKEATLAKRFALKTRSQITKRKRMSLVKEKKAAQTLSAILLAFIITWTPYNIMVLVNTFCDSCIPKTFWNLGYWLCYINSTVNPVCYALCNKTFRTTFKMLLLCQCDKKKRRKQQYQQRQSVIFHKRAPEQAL
Sequence of Mu-type opioid receptor (P35372 whole entry): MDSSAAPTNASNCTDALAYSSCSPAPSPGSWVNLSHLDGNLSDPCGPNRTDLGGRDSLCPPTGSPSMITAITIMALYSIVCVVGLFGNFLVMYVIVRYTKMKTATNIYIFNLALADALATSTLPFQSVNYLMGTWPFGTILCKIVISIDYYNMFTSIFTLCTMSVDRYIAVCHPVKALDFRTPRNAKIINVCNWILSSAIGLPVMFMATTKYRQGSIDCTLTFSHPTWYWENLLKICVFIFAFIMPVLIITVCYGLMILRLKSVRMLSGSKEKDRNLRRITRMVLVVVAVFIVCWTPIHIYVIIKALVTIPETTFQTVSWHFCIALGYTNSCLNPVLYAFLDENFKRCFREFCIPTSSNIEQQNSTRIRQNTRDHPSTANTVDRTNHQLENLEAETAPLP
Sequence of Vascular endothelial growth factor receptor 2 (P35968 whole entry): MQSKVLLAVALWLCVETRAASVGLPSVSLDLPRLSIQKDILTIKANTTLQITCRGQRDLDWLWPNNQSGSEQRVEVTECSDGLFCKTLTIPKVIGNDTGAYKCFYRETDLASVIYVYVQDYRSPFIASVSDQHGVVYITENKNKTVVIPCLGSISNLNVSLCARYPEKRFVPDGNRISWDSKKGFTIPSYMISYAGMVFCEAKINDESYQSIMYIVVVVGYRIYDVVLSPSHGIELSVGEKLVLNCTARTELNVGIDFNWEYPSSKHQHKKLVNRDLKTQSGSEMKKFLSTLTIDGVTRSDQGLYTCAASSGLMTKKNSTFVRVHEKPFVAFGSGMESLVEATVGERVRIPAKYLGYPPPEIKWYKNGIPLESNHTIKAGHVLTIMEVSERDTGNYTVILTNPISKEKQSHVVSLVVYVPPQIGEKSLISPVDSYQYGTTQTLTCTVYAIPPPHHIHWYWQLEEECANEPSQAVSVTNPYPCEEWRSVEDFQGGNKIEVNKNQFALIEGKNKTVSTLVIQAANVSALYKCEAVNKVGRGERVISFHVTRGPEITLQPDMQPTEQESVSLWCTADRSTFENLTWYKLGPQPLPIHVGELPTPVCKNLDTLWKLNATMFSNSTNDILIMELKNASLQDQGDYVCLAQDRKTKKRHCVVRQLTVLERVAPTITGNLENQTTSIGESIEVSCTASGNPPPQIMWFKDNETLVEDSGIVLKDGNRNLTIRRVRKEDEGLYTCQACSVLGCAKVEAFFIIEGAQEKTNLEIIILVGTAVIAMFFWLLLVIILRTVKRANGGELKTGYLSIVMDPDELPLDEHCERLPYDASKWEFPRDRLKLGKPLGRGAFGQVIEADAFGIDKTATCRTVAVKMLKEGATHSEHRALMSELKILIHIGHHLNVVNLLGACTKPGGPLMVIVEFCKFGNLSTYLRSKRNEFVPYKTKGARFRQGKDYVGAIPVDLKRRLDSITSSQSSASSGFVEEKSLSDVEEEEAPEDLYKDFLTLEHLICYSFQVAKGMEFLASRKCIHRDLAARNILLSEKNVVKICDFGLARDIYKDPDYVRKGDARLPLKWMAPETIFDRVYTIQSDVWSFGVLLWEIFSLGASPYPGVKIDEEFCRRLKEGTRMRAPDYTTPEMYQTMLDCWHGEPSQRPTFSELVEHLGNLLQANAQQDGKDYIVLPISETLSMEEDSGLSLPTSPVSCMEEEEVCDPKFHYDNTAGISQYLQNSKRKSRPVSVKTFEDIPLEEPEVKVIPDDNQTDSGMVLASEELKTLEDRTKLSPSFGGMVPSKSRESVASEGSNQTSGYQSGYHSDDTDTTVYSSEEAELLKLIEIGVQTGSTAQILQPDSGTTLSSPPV

For `CC(C)(C)C(=O)OCC(=O)[C@H]1CC[C@H]2[C@@H]3CCC4=CC(=O)CC[C@]4(C)[C@H]3CC[C@]12C` [DESOXYCORTICOSTERONE PIVALATE], the AC50 was above 10 µM in [1]; above 10 µM in [2]; above 30 µM in [3]; above 10 µM in test [4]; above 10 µM in [5]; above 30 µM in test [6]. The AC50 was above 10 µM in test [7] and above 30 µM in test [8].
With `CC(CCc1ccc(O)cc1)NCCc1ccc(O)c(O)c1` (centres undefined) [DOBUTAMINE], the AC50 in test [9], in [10], in [2], in test [11], in test [12] and in test [3] was above 30 µM in each case. The half-maximal activity concentration (AC50) is above 30 µM in test [5], 0.0054 µM in test [6] and 6.86 µM in test [7].
As to `CCC(=O)O[C@]1(C(=O)SCF)[C@H](C)C[C@H]2[C@@H]3C[C@H](F)C4=CC(=O)C=C[C@]4(C)[C@@]3(F)[C@@H](O)C[C@@]21C` [FLUTICASONE PROPIONATE], the AC50 in test [13] was above 30 µM; in [1] it was above 30 µM; in test [9], above 30 µM; in test [10], above 30 µM; in test [14], 23.2 µM; in test [2], above 30 µM. Further, the half-maximal activity concentration (AC50) in test [11], in test [12], in test [3], in test [5], in test [15] and in test [16] was above 30 µM in each case. Besides, the concentration at half-maximal activity (AC50) in test [6], in [7], in test [8] and in test [17] was above 30 µM each time.
`Oc1ccc2c(c1)CC[C@H](c1ccccc1)[C@@H]2c1ccc(OCCN2CCCC2)cc1` [LASOFOXIFENE]: the half-maximal activity concentration (AC50) in test [1] was 11 µM; in test [9], above 30 µM; in [10], above 3 µM; in test [11], above 30 µM; in [12], above 30 µM; in [3], above 30 µM. The AC50 in [5] came out at 9.49 µM; in test [7], 0.0849 µM; in [8], 11 µM.
Take `CN1CCN(C2=Nc3ccccc3Oc3ccc(Cl)cc32)CC1` [LOXAPINE]: the concentration at half-maximal activity (AC50) in [13] was above 30 µM; in test [1] it was 0.794 µM; in test [9] it was above 30 µM; in test [10], above 30 µM; in [14] it was 27.4 µM; in test [11], above 30 µM. For the same compound, the AC50 in test [12] is above 30 µM; in [3], above 30 µM; in test [15], above 30 µM; in [16], above 30 µM; in test [6], above 30 µM; in test [7], 8.24 µM. This compound also registered a concentration at half-maximal activity (AC50) in test [17] above 30 µM.
`CC(C(=O)O)c1ccc(CC2CCCC2=O)cc1` (centres undefined) [LOXOPROFEN]: the AC50 in [9], in test [10], in [2], in test [11], in test [12] and in test [3] was above 30 µM throughout. Moreover, the AC50 in test [5] is above 30 µM; in test [6] it was above 30 µM; in test [7], 0.66 µM.
For the compound `CC12CC3CC(C)(C1)CC(N)(C3)C2` [MEMANTINE], the AC50 is above 10 µM in test [1]; above 30 µM in test [10]; above 10 µM in [2]; above 30 µM in test [11]; above 30 µM in test [12]; above 30 µM in test [3]. The AC50 was above 10 µM in test [5], above 30 µM in test [6], 15.2 µM in test [7] and above 30 µM in test [8].
With `CN(C)CCCNc1c2ccccc2nc2cccc([N+](=O)[O-])c12` [NITRACRINE], the concentration at half-maximal activity (AC50) in test [1] was 11 µM; in [9], above 30 µM; in test [10] it was above 30 µM; in test [2] it was above 30 µM; in [11] it was above 30 µM; in test [12] it was above 30 µM. Besides, the half-maximal activity concentration (AC50) in [3] was above 30 µM; in test [5], 0.76 µM; in [6], above 30 µM; in [7], above 30 µM; in test [8], 19 µM.
Take `CCOC(=O)C1=C(C)NC(C)=C(C(=O)OC)C1c1cccc([N+](=O)[O-])c1` (centres undefined) [NITRENDIPINE]: the AC50 is above 30 µM in [10]; above 10 µM in [2]; above 30 µM in test [11]; above 30 µM in test [12]; above 30 µM in [3]; above 10 µM in test [5]. In addition, the concentration at half-maximal activity (AC50) in [6] is above 30 µM; in [7] it was above 10 µM.
For `CC(N)C(O)c1ccccc1` (centres undefined) [PHENYLPROPANOLAMINE], the AC50 was above 10 µM in test [1]; above 30 µM in test [10]; above 10 µM in test [2]; above 30 µM in [11]; above 30 µM in test [12]; above 30 µM in [3]. Besides, the AC50 was above 10 µM in [5], above 30 µM in [6] and above 10 µM in test [7].
As to `CNCc1ccc(-c2[nH]c3cc(F)cc4c3c2CCNC4=O)cc1` [RUCAPARIB], the AC50 in test [1] was above 10 µM; in test [10] it was above 30 µM; in test [4], above 10 µM.
For the compound `CCCC(CCC)C(N)=O` [VALPROMIDE], the AC50 is above 10 µM in test [1]; above 30 µM in test [10]; above 10 µM in [2]; above 30 µM in test [12]; above 30 µM in test [3]; above 10 µM in test [5]. Also, the AC50 is above 30 µM in test [6], above 10 µM in test [7] and above 30 µM in test [8].
For `Cc1cc(C(C)(C)C)cc(C)c1CC1=NCCN1` [XYLOMETAZOLINE], the AC50 in test [1] was 14.4 µM; in [9] it was above 30 µM; in test [10], above 30 µM; in test [2], 1.16 µM; in test [11] it was above 30 µM; in test [12], above 30 µM. Besides, the AC50 in [3] is above 30 µM; in [6], 0.0023 µM; in test [7] it was 20 µM; in test [8] it was 10 µM.
